Reference: patent publication US7354611B1, “Fecundity-promoting supplement for the insidious flower bug reared on artificial diet” (The United States of America as represented by the …, priority 2003, dated 2008)

System: Orius insidiosus
Assay: Orius insidiosus fecundity (oviposition) bioassay: adults fed artificial diet with or without supplement, cumulative eggs laid/female counted on green bean
Type: in vivo
Conditions: Test 2
Protocol: Newly emerged adults of Orius insidiosus (<24 hour eclosion) were obtained from a commercial producer of beneficial insects (Entomos, Gainesville, Fla.). The insects were placed on the experimental diets on the third day after eclosion. Each diet treatment consisted of six females and four males in a 100-ml plant tissue culture jar (Sigma, St. Louis, Mo.) with four jars per treatment. Each jar contained one paraffin-encapsulated water dome (50 μl), two artificial diet domes (50 μl), one 7-cm section of green bean pod for oviposition, and three crumpled strips of wax paper (5 mm×80 mm) as substrates for the insects to crawl on. Artificial diet jars contained only artificial diet. Experimental diet jars contained artificial diet plus a supplement. Plodia egg (standard) jars each contained approximately 75 Ploida interpunctella eggs (approximately 3 mg) in place of diet. Although eggs from Euphestia kuehniella are generally used by commercial producers, eggs from P. interpunctella were used because O. insidiosus feeds readily on their eggs. Green beans were removed every other day and examined under a microscope to count eggs and then replaced with a fresh green bean section and mortality was also recorded within each jar. Plodia eggs and domes of water and diet were replaced on the same days that the green beans were removed for counting eggs. The insects were held in a growth chamber at about 25.50±1° C., with approximately 75±5% relative humidity, and a photoperiod of 15:9 (light:dark) hours. The experiments were carried out until the females in all treatments ceased oviposition, approximately 28 days. Diets were prepared under aseptic conditions in a clean room and encapsulated in Parafilm using a diet encapsulation apparatus as described in Ferkovich et al. (BioControl, Volume 45, 401-413, 2000).
The artificial diet was developed for rearing Orius sauteri (Weiru and Ren, 1989, supra), and consisted of approximately 4.0 grams brewers yeast, 0.4 grams sucrose, 2.1 grams soy protein acid hydrolysate, 0.046 grams of 99% palmitic acid (all from Sigma, St. Louis, Mo.), 0.5 grams chicken egg yolk, and 1.0 gram honey in 12 ml distilled water. Palmitic acid was mixed with the egg yolk component before adding it to the diet.
Two tests were conducted. In the first test, artificial diet was compared with the experimental diets which were composed of artificial diet supplemented with homogenized Plodia eggs, and protein and lipid extracts from Plodia eggs as described above. Each experimental diet was compared against the control artificial diet in an independent experiment on different dates. In the second test, any of the statistically significant experimental diets from the first test were then simultaneously compared with the experimental diets containing non-insect supplements.
Each treatment in both tests was replicated four times with 6 females and 4 males/replication. The cumulative number of eggs laid/female on artificial diet and on experimental diet were calculated relative to the percent eggs laid/female on Plodia eggs (standard); thus, mean ±S.E.=[#eggs laid per female on either artificial diet or experimental diet divided by # eggs laid per female on Plodia eggs]×100, n=4. The egg counts were adjusted for mortality. The egg counts per female were calculated for each replication. Data was analyzed by ANOVA using StatMost Software (Dataxiom Software Inc.). […]

[1] = Bovine Serum Albumin 83.3 mg/ml diet
[2] = Bovine Serum Albumin 166.7 mg/ml diet

Bovine Serum Albumin: Bovine Serum albumin, Fraction V powder, Sigma
% of Plodia egg Standard ± SE [1]: 51.3 ± 4.1%
Mean no. eggs/female ± SE [1]: 19.7 ± 1.6 eggs/female
% of Plodia egg Standard ± SE [2]: 64.9 ± 4.2%
Mean no. eggs/female ± SE [2]: 24.9 ± 1.6 eggs/female
effect on cumulative mean number of egg oviposited/female (versus artificial diet (Table 2)): significantly increased
